According to patent publication US20250170252A1, “QUINONE PROTECTED FORMS AND CONJUGATES” (CAMBRIDGE ENTERPRISE LIMITED, priority 2022, published 2025):
Where two headings read alike, the source gives them in different places.

Legend:
[1] = tested on: Panc-1 pancreatic cancer cell line; assay: CellTiter Glo viability assay, Panc-1; format: cell-based; conditions: for IC50: Homo sapiens, PANC-1, 48 h; for toxicity without the β-glucuronidase enzyme: Panc-1, up to 100 μM
Procedure: (§1) For CellTiter Glo viability assays, 10,000 cells per well were plated on Day 1 and were allowed to adhere to the plate surface for 24 hours. Optimized concentration ranges of prodrugs were determined and made via serial dilution. […] Cells were incubated with compound for 48 hours and viability was assessed on Day 4 using the CellTiter Glo Viability assay which measures metabolically active cells by quantifying the amount of ATP present.
(§2) Panc-1 cells were obtained from Tony Kouzarides' lab in the Gurdon Institute at the University of Cambridge and put into culture at passage 10 containing DMEM media (Gibco) supplemented with 1% Pen-Strep antibiotic (Gibco), 1% L-glutamine, and 10% fetal bovine serum (FBS, sterile-filtered). Aspc-1 cells were bought commercially from the American Type Culture Collection (ATCC) and put into culture containing RPMI 1640 media (Gibco) supplemented with 1% Pen-Strep antibiotic (Gibco), 1% L-glutamine, and 20% fetal bovine serum (FBS, sterile-filtered). All cell lines were started at passage 10 and passaged every 3 days by centrifuging at 1000 rpm for 4 minutes.

[2] = tested on: Aspc-1 pancreatic cancer cell line; assay: CellTiter Glo viability assay, Aspc-1; format: cell-based; conditions: for toxicity without the β-glucuronidase enzyme: Aspc-1, up to 100 μM; for IC50: Homo sapiens, ASPC1, 48 h
Procedure: as §1, §2

[3] = Glucuronide kinetics assay (release of β-lapachone after β-glucuronide deprotection); format: physicochemical
Procedure: Glucuronide prodrug (37a, b, c, d) was dissolved in DMSO to a concentration of 10 mM. A 100 mM stock solution of warfarin in DMSO was also prepared. To obtain deprotected para-hydroxybenzyl ketol species, the glucuronide stock solution was dissolved in PBS with 16.7% DMF to a concentration of 1.7 mM. 15 μL of a stock solution of R-glucuronidase from E. coli K-12 (Roche #03707580001, 140 U/mL) was added to 900 μL of this stock and incubated for 20 min at 37° C. 15 μL of a 100 mM stock of warfarin internal standard in DMSO was added. Reactions were then set up immediately. For a reaction, 30 μL of the amino-benzyl ketol/standard stock was added to 195 μL of citrate-phosphate buffer at the specified pH. Test samples were incubated at 37° C. with shaking. At the recorded time points, 20 μL aliquots of the reactions were analysed by HPLC (254 nm, Agilent 1260 Infinity). HPLC conditions: column Agilent InfinityLab Poroshell 120 SB—C18 2.7 μm, 50×4.6 mm; solvent system A=H2O+0.1% TFA, B=acetonitrile+0.1% TFA; flow=1 mL/min. Gradient: t=0-1 min 0% B, t=1-2 min 0-30% B, t=2-17 min 30-40% B, t=17-17.1 min 40-100% B, t=17.1-18 min 100% B, t=18-23 min 0% B. Relative peak area represents raw peak area (mAU*s) normalized to raw peak area of the warfarin internal standard. Values recorded are averages of three independent reactions and error bars display standard error of the mean. Values were fitted to first-order kinetics using GraphPad Prism 9 software. A positive control experiment was performed under identical conditions with known substrate 4-nitrophenyl-β-D-glucuronide (Sigma Aldrich) to confirm enzyme activity.

[4] = Penicillin-G amidase mediated kinetic analysis of elimination at physiological pH; format: physicochemical; conditions: pH 7.4, 37° C.
Procedure: Stocks of 2-phenylacetyl-para-aminobenzyl ketol were made up in DMF at a concentration of 10 mM. For a reaction, 17.5 μL of ketol stock was added to 17.5 μL of a 10 mM stock of internal standard in DMF and 310 μL of PBS at pH 7.4. To initiate a reaction, 5 μL of a suspension of Penicillin-G amidase (PenG, Sigma Aldrich enzyme 76427, 5-10 U/mg) was added. In control samples 5 μL of PBS was added in place of the enzyme. Test and control samples were then incubated at 37° C. with shaking. At the recorded time points, 20 μL aliquots of the reactions were analysed by HPLC (254 nm, ThermoFisher U3000). HPLC column: Phenomenex Kinetex C18, 5 μm, 50×4.6 mm, 100 Å; flow=1 mL/min. Gradient and solvent system for assay with 2-phenylacetyl-PAB-PhQ 21: A=H2O, B=acetonitrile, t=0-1 min 0% B, t=1-10 min 0-100% B, t=10-11 min 0% B. Gradient and solvent system for assay with 2-phenylacetyl-PAB-BL 22 and 2-phenylacetyl-PAB-DN 23: A=H2O+0.1% formic acid, B=acetonitrile+0.1% formic acid, t=0-1 min 0% B, t=1-10 min 0-40% B, t=10-16 min 40-50% B, t=16.1 min 100% B, t=16.1-18 min 100% B, t=18-20 min 0% B. Peaks were identified by LCMS analysis and comparison with pure compounds. Values described represent peak area (mAU*min) divided by peak area of internal standard. Recorded values are averages of three independent reactions and error bars display standard error of the mean. Fitting was performed using GraphPad Prism 8 software. Rate and half-life measurements were calculated by consumption of intermediate para-aminobenzyl ketol and formation of product quinone.

[5] = 1H NMR kinetic analysis of elimination of PAB-PhQ; format: physicochemical; conditions: 25° C., moderately acidic methanolic solution
Procedure: Kinetics of the release of PhQ 4, from PAB-PhQ 7 were monitored by ^1H NMR at 25° C. Analysis was performed in MeOD due to poor solubility of the compound in H2O. To form the active eliminating species, Boc-PAB-PhQ 6 was dissolved in dichloromethane/trifluoroacetic acid 4:1 at 0° C. and stirred for 30 min, upon which the reaction appeared complete by thin-layer chromatography. Product 7 was dried in vacuo before being dissolved in MeOD. Basicity of the solution was altered by addition of triethylamine (drops). pH was estimated using pH paper. pH values are indicative only as analysis is performed in MeOD. Elimination rates were determined from the aromatic region. Kinetics were measured by monitoring the integral of one peak, normalised to number of protons present (i.e. integral of 1H), divided by the total integral of the aromatic region (δ=6.2-8.6 ppm, i.e. integral of 12H). Analysis was performed using Mestrenova 8.0 processing software and rate constants were calculated using GraphPad Prism v8.0 software.

[6] = pH-rate aqueous kinetic analysis of fragmentation (para-aminobenzyl ketols); format: physicochemical; conditions: for pH at which elimination rate peaks / half-life at 0.155 mM: citrate-phosphate buffer; for half-life at 0.155 mM: pH 7, pH 7, read-out: release t1/2 (converted)
Procedure: pH-rate analysis was performed by adaption of the PenG assay. To obtain deprotected para-aminobenzyl ketol species, 2-phenylacetyl protected ketol was dissolved in PBS with 33% DMF to a concentration of 3.3 mM. 20 μL of a stock solution of PenG was added to 600 μL of this stock and incubated for 20 min at 37° C. 20 μL of a 100 mM stock of internal standard in DMSO was added. Reactions were then set up immediately. For a reaction, 10 μL of the amino-benzyl ketol/standard stock was added to 190 μL of citrate-phosphate buffer at the specified pH to obtain an aqueous solution containing 1.8% DMSO. Test samples were incubated at 37° C. with shaking. At the recorded time points, 20 μL aliquots of the reactions were analysed by HPLC (254 nm, ThermoFisher U3000). HPLC conditions: column Phenomenex Kinetex C18 5 μm, 50×4.6 mm, 100 Å; solvent system A=H2O, B=acetonitrile; flow=1 mL/min. Gradient and solvent system for assay with PAB-PhQ 7: A=H2O, B=acetonitrile, t=0-1 min 0% B, t=1-10 min 0-100% B, t=10-11 min 0% B. Gradient and solvent system for assay with PAB-BL 10 and PAB-DN 18: A=H2O+0.1% formic acid, B=acetonitrile+0.1% formic acid, t=0-1 min 0% B, t=1-10 min 0-40% B, t=10-16 min 40-50% B, t=16.1 min 100% B, t=16.1-18 min 100% B, t=18-20 min 0% B. Values described represent peak area (mAU*min) divided by peak area of internal standard. Where necessary, peaks were deconvoluted using Origin fitting software. Recorded values are averages of three independent reactions and error bars display standard error of the mean. Values were fitted using GraphPad Prism software. Rate and half-life measurements were calculated based on disappearance of the para-aminobenzyl ketol species.

MOLM-13 = assay: Viability assay with small molecule prodrugs, Trypan Blue exclusion, MOLM-13; format: cell-based; conditions: 5 μM, 24 h timepoint
Procedure: For assays assessing cytotoxicity of β-lapachone versus small molecule dipeptide prodrugs, suspension cells were plated into 24 well plates at a density of 2.5×10^5 cells/mL in 240 μL. Serial dilutions of compound were made up in PBS. 60 μL of each stock of either PBS, or compound in PBS was added to the cells to achieve the desired final concentration. After the specified incubation time, toxicity was assessed by counting of live cells using the Trypan Blue exclusion method with a Countess II Automated Cell Counter (ThermoFisher Scientific) according to the manufacturer's instructions. Cell viability was determined by division of average live cell number of treated wells by average live cell number for control wells treated with PBS only. Values recorded are the mean of three repeat wells, with error bars representing the standard error of the mean for each concentration tested. IC50 values were calculated using GraphPad Prism software.

COc1cc(O[C@@H]2O[C@H](C(=O)O)[C@@H](O)[C@H](O)[C@H]2O)ccc1CC1(O)C(=O)C2=C(OC(C)(C)CC2)c2ccccc21 (single isomer, unassigned) [Compound 37d]
IC50 [1]: 0.904 µM
toxicity without the β-glucuronidase enzyme [1]: no toxicity
toxicity without the β-glucuronidase enzyme [2]: no toxicity
IC50 [2]: 2.99 µM
release rate compared with other derivatives ([3]; pH 6-10 (FIG. 7)): orders of magnitude faster release

Nc1ccc(CC2(O)C(=O)c3ccccc3-c3ccccc32)cc1 (centres unmarked) [Compound 7, 10-(4-aminobenzyl)-10-hydroxyphenanthren-9(10H)-one]
elimination of 7, rate kobs ([4]; intermediate 7 generated from 21): 9.72 (±2.88)×10^−6 s^−1
rate of consumption of 7 (kobs) ([5]; first-order fit): 6.18±0.12×10^−5 s^−1
rate of formation of product 4 (kobs) ([5]; from 7): 6.55±0.22×10^−5 s^−1
time to complete release ([5]; release of 4 from 7): ≤ 20 h
pH at which elimination rate peaks ([6]; 37° C.): 5-6

CC1(C)CCC2=C(O1)c1ccccc1C(O)(Cc1ccc(N)cc1)C2=O (centres unmarked) [Compound 10, 6-(4-aminobenzyl)-6-hydroxy-2,2-dimethyl-2,3,4,6-tetrahydro-5H-benzo[h]chromen-5-one]
pH at which elimination rate peaks ([6]; 37° C.): 3
half-life at 0.155 mM ([6]; additional repeats of the experiments): 542 days
half-life at 0.155 mM ([6]; initially reported value): 32.9 days
release rate kobs ([6]; pH 7, initially reported value): 2.4e-07 s⁻¹
elimination resulting in formation of 1 ([6]; pH≥6 within 72 h, 37° C.): Negligible elimination

O=C(Cc1ccccc1)Nc1ccc(CC2(O)C(=O)c3ccccc3-c3ccccc32)cc1 (centres unmarked) [Compound 21, 2-Phenyl-acetyl-para-aminobenzyl phenanthrene-ketol]
formation of PhQ 4, rate kobs ([4]; following addition of Penicillin-G amidase to 21): 1.15 (±0.66)×10^−5 s^−1
stability without added enzyme ([4]; no Penicillin-G amidase): stable

CC(=O)Oc1c2c(c3ccccc3c1OC(C)=O)OC(C)(C)CC2 [Compound 29, 2,2-dimethyl-3,4-dihydro-2H-benzo[h]chromene-5,6-diyl diacetate]
toxicity to MOLM-13 (MOLM-13): complete cell death

CC1(C)CCC2=C(O1)c1ccccc1C(O)(Cc1cc(F)c(O[C@@H]3O[C@H](C(=O)O)[C@@H](O)[C@H](O)[C@H]3O)c(F)c1)C2=O (stereo partly drawn) [Compound 37b, (2S,3S,4S,5R,6S)-6-(2,6-difluoro-4-((6-hydroxy-2,2-dimethyl-5-oxo-3,4,5,6-tetrahydro-2H-benzo[h]chromen-6-yl)methyl)phenoxy)-3,4,5-trihydroxytetrahydro-2H-pyran-2-carboxylic acid]
IC50 [1]: 13.4 µM
toxicity without the β-glucuronidase enzyme [1]: no toxicity
toxicity without the β-glucuronidase enzyme [2]: no toxicity
IC50 [2]: 24.4 µM
elimination rate compared with plain PHB linker ([3]; pH 3-7 (FIG. 6)): faster
elimination rate compared with plain PHB linker 37a ([3]; pH 3-8.5 (FIG. 7)): faster
release rate of β-lapachone, kobs ([3]; pH 7, 37° C., after β-glucuronide deprotection, first experiments): 2.68e-06 s⁻¹
quinone release rate, kobs ([3]; pH 7, additional fragmentation experiments): 4.2e-06 s⁻¹
elimination rate compared with plain PHB linker ([3]; pH 8-10 (FIG. 6)): slower
elimination rate compared with plain PHB linker 37a ([3]; pH 9-10 (FIG. 7)): slower

para-Aminobenzyl dunni-ketol [Compound 18]
elimination rate compared with PAB-BL 10 ([6]; 37° C., range of pH values): very similar rate
